Reference: patent publication US8895752B2, “Alkylsulfonyl-substituted thiazolide compounds” (priority 2007, dated 2014)
Read-outs that look alike come from different tables or passages of the source.

Key:
2.2.15 cells = test: Cytotoxicity by neutral red dye uptake in 2.2.15 cells; settings: confluent 2.2.15 cultures, nine daily doses, neutral red uptake
Procedure: HBV antiviral assays were conducted as previous described (Korba and Gerin, 1992).
(§1) EC50, EC90 and CC50 values (±standard deviations [S.D.]) were calculated by linear regression analysis using data combined from all treated cultures (Korba and Gerin, 1992; Okuse et al., 2005). […] Selectivity index (S.I.) was calculated as CC50/EC90 for HBV assays and CC50/EC50 for HCV assays. EC90 values were used for calculation of the S.I. in HBV assays since at least a […] depression of HBV DNA levels is typically required to achieve statistical significance in this assay system (Korba and Gerin, 1992). For combination treatments, EC50, EC90, CC50 and S.I. are presented for the first compound listed. The molar ratio of the compounds in each combination is also indicated.

[1] = system: Huh7 cells containing H/FL-Neo; test: Cytotoxicity by neutral red dye uptake in Huh7 cells containing H/FL-Neo; assay type: cell-based; settings: Genotype 1a replicon
HBV = HBV antiviral assay in confluent 2.2.15 cell cultures (HBV DNA, quantitative blot hybridization); assay type: cell-based, Hepatitis B Virus; settings: 2.2.15 cells, nine daily doses
Procedure: EC50, EC90 and CC50 values (±standard deviations [S.D.]) were calculated by linear regression analysis using data combined from all treated cultures (Korba and Gerin, 1992; Okuse et al., 2005). […] Selectivity index (S.I.) was calculated as CC50/EC90 for HBV assays and CC50/EC50 for HCV assays. EC90 values were used for calculation of the S.I. in HBV assays since at least a 3-fold depression of HBV DNA levels is typically required to achieve statistical significance in this assay system (Korba and Gerin, 1992).

AVA5 cells = test: Cytotoxicity by neutral red dye uptake in AVA5 cells; assay type: cell-based; settings: Genotype 1b replicon, 3 days
[2] = system: HCV replicon H/FL-Neo, genotype 1a full length; test: HCV replicon assay in Huh7 cells containing H/FL-Neo; assay type: cell-based, Hepatitis C Virus
Procedure: (§2) Antiviral activity of test compounds was assessed in a 3-day assay using the stably-expressing HCV replicon cell line, AVA5 (sub-genomic CON1, genotype 1b) (Blight et al., 2000) maintained as sub-confluent cultures on 96-well plates as previously described (Okuse et al., 2005). Antiviral activity was determined by blot hybridization analysis of intracellular HCV RNA (normalized to the level of cellular B-actin RNA in each culture sample) and cytotoxicity was assessed by neutral red dye uptake after 3 days of treatment. Additional studies were performed using Huh7 cells containing another HCV replicon, H/FL-Neo, a genotype 1a full length construct (Blight et al., 2003). For studies involving human serum, standard culture medium (which contains 10% fetal bovine serum) and assay conditions were maintained.
as §1

[3] = system: HCV replicon, sub-genomic CON1, genotype 1b; test: 3-day HCV replicon assay in AVA5 cells (intracellular HCV RNA, blot hybridization); assay type: cell-based, Hepatitis C Virus
Procedure: as §2, §1

[4] = system: HCV replicon cells, genotype 1A; test: Secondary HCV replicon cell assay, genotype 1A, cytotoxicity; assay type: cell-based
From the text: (§3) Table 10 presents data from the secondary HCV replicon cell assays using genotypes 1B and 1A.

HCV replicon cells = test: Primary HCV replicon cell assay, cytotoxicity; settings: primary assay
Procedure: as §2, §1

HCV replicon = test: Primary HCV replicon cell assay; assay type: cell-based, Hepatitis C Virus
Procedure: as §2, §1

HCV replicon genotype 1B = test: Secondary HCV replicon cell assay, genotype 1B; assay type: cell-based, Hepatitis C Virus
From the text: as §3

HCV replicon genotype 1A = test: Secondary HCV replicon cell assay, genotype 1A; assay type: cell-based, Hepatitis C Virus
From the text: as §3

[5] = system: HCV replicon cells, genotype 1B; test: Secondary HCV replicon cell assay, genotype 1B, cytotoxicity; assay type: cell-based
From the text: as §3

[6] = Genotype 1b replicon, 3 days, first compound listed for combinations

Compound `O=C(Nc1ncc(Br)s1)c1ccccc1O` [RM4832] has a CC50 (2.2.15 cells) of over 100 µM, a CC50 [1] of 88 ± 2.1 µM and an EC50 (HBV; read-out: Extracellular virion DNA EC50) of 1.2 ± 0.1 µM. It also gave an EC90 (HBV; read-out: Extracellular virion DNA EC90) of 4 ± 0.3 µM, an EC50 (HBV; read-out: Intracellular HBV RI EC50) of 2.9 ± 0.3 µM and an EC90 (HBV; read-out: Intracellular HBV RI EC90) of 8.7 ± 1 µM. The CC50 (AVA5 cells) was 98 ± 3.2 µM, the “antiviral activity against full length genotype 1a replicon compared with AVA5 cells (genotype 1b)” value [2] was “equivalent” and the EC50 ([2]; Genotype 1a replicon) was 2.8 ± 0.3 µM. The EC90 ([2]; Genotype 1a replicon) was 9.4 ± 1.1 µM, the EC50 [3, 6] was 4.9 ± 0.5 µM and the EC90 [3, 6] was 20 ± 1.9 µM. For the same compound, the “activity against HCV” value ([3]; among the other thiazolides) was “exhibited activity”.
For `CS(=O)(=O)c1cnc(NC(=O)c2ccccc2O)s1` [Compound 75], the CC50 [4] was 56 µM, the CC50 (HCV replicon cells) was 53 µM and the EC50 (HCV replicon) was 2.1 µM. The EC90 (HCV replicon) was 8.1 µM, the EC90 (HCV replicon genotype 1B) was 7.9 µM and the EC50 (HCV replicon genotype 1A) was 2.8 µM. The EC90 (HCV replicon genotype 1A) was 8.5 µM and the CC50 [5] was 54 µM.
